Source: patent publication US20060008858A1, “Osteoblast factor(s) that regulates human prostate cancer migration to and invasion of bone” (The Regents of the University of Michigan, priority 2004, published 2006)

System: LNCaP-C4-2B and VCaP human CaP cells
Assay: Chemotaxtic migration assay (cell culture inserts)
Type: cell-based
Settings: osteoblast-secreted proteins evaluated in migration assays; FIG. 2
Method: Conditioned medium from human primary pre-osteoblast cells was prepared by plating 5×10^5 cells in 10 ml culture medium (10% FBS DMEM medium) to 100 mm tissue culture dishes. Following 24 hrs to allow for adherence, the medium was removed and the cells washed three times with 10 ml/dish PBS. Washed cells were then incubated 72 hrs in 10 ml/dish serum-free DMEM medium supplemented with 1% (v/v) ITS+(Becton Dickenson, Bedford. Mass.) Medium collected after 72 hrs was filtered through 0.2 μm filter and used directly in in vitro invasion and migration assays with human prostate cancer cells.
Chemotaxtic migration assays were performed as described with modifications (Jeffers et al., 1996). Briefly, cells were harvested with trypsin, washed once with serum-free medium, and resuspended in serum-free DMEM medium to a concentration of 5×10^4 viable cells/ml. 25,000 cells/0.5 ml were then added to 24-well cell culture inserts with a […] pore size (Becton Dickinson, Bedford, Mass.). The inserts were placed in wells containing 0.5 ml of serum-free DMEM, 72 hr serum-free conditioned medium from human primary osteoblasts and incubated for 48 hrs in 5% CO2-95% air at 37° C. […] The total number of invading cells/filter was quantified under 10× magnification. […]

IL-6: osteoblast-secreted protein, interleukin 6
effect on CaP cell migration: stimulatory

basic Fibroblast Growth Factor: osteoblast-secreted protein, basic fibroblast growth factor
effect on CaP cell migration: stimulatory
